Assay results taken from paper PMC11487561 (ACS Chemical Neuroscience, 2024).
Read-outs that look alike come from different tables or passages of the source.

How the values were obtained:
human M4 (hM4) = molecular target: T1, human M4 (hM4) (Homo sapiens, UniProt P08173); test: Calcium mobilization assay, hM4/Gqi5-CHO cells, EC20 acetylcholine (PAM); format: cell-based; details: for Emax: read-out: hM4 %ACh Max; for fold loss in hM4 potency vs comparator: 14e vs 14g, 14c vs VU6007215
T1 construct: expressed in transfected cells
T1 sequence (P08173 1-479): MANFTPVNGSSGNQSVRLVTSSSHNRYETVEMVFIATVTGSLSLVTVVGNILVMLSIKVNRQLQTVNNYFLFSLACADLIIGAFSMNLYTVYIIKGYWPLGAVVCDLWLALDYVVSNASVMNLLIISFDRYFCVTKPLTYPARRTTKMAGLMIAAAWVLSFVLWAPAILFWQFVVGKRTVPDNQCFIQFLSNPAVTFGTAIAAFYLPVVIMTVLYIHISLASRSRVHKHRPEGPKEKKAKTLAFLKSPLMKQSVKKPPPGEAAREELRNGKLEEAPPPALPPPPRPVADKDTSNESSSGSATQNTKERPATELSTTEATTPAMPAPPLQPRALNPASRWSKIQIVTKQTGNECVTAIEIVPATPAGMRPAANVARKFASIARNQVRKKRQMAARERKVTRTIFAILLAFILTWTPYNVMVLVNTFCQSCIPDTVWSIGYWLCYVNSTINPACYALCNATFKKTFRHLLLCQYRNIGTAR

[1] = Intrinsic clearance in rat liver microsomes; format: in vitro ADME; details: pH 7.4; rat liver microsomes
Method: (§1) Intrinsic Clearance in Rat and Human Liver Microsomes
(§2) The in vitro intrinsic clearance (CL int) was investigated in commercially obtained hepatic microsomes from rat and human donors using the substrate depletion (i.e., loss-of-parent vs. time, or t 1/2 method) approach with analyte detection via liquid chromatography-tandem mass spectrometry (LC-MS/MS). For each species, mean %parent remaining values at each time point were calculated from replicates raw data (analyte:IS peak area ratios) and used to determine in vitro t 1/2 and CLint.
(§3) Experiments were carried out using a robot-assisted (TECAN model Evo 200). Compound was incubated (1 µM final concentration) in buffer (100 mM potassium phosphate pH 7.4 with 3 mM MgCl2) containing hepatic microsomes (0.5 mg/mL final concentration) from multiple species, discretely, at 37 °C under constant orbital shaking. After 5 minutes (pre-incubation), reactions were initiated by addition of nicotinamide adenine dinucleotide phosphate (NADPH, 1 mM final concentration). At selected time intervals (0, 3, 7, 15, 25, and 45 minutes) post-addition of NADPH, aliquots (50 µL) were taken and placed into a 96-shallow-well plate containing ice cold acetonitrile (150 µL) with carbamazepine (IS, 50 nM). The plates were then centrifuged (3000 rcf at 4 °C) for 10 minutes. The supernatants were transferred to a new 96-shallow-well daughter plate and diluted (1:1 v/v) with water (Milli-Q filtered). The plates were then sealed in preparation for LC-MS/MS analysis (see below).
(§4) Raw LC-MS/MS peak area data generated from the assay samples were used to construct natural log-transformed %parent remaining vs. time plots (using t = 0 minute post-NADPH addition sample data as starting point set to 100%). In vitro compound half-life (t 1/2) values were obtained using the following […]
(§5) k is the slope from linear regression analysis of the natural log-transformed data (using means from Where all replicates at each time point). Resulting t 1/2 values were then used to calculate hepatic CLint values according to the following equation and with the use of species-specific scale-up factors for liver weight (grams) per total body weight (kg): […]
(§6) CLint = in vitro t1/2 x 0.5 mg microsomes x 1 gram liver x kg body wt aScale-up factors used are 45 (rat) and 20 (human).2
(§7) Predicted hepatic clearance (CLhep) was calculated using the following equation: […]
(§8) Qh represents hepatic blood flow (mL/min/kg): 21 for human, 70 for rat, and 90 for mouse.
(§9) Prepared samples were injected (10 µL each) onto an AB Sciex Triple Quad 4500 mass spectrometer system with an Agilent 1260 Infinity II pump and autosampler. Mass spectrometer conditions are described in Table S1. Quantitation of compounds was performed via AB Sciex Multiquant software using the raw analyte:IS peak area ratios. The typical detection range was 0.5 ng/mL to ≥ 5,000 ng/mL utilizing a quadratic equation regression with 1/x2 weighting. […]
(§10) Table S1. LC-MS/MS Conditions*
(§11) Mobile phase A 0.5% Formic Acid in Water
(§12) Mobile phase B 0.5% Formic Acid in Acetonitrile
(§13) Gradient Time % Mobile Phase B

[2] = Intrinsic clearance in human liver microsomes; format: in vitro ADME; details: pH 7.4; human liver microsomes
Method: as §1, §2, §3, §4, §5, §6, §7, §8, §9, §10, §11, §12, §13

[3] = Binding in plasma from rat (equilibrium dialysis); format: in vitro ADME; details: read-out: rat fu,plasma
Method: (§14) Binding in plasma from rat and human.
(§15) Determination of compounds’ fraction unbound (f u) in plasma from rat and human was conducted in vitro via equilibrium dialysis using HTDialysis membrane plates. Dialysis membranes (four paired strips per HTD assay) were hydrated as described by the manufacturer and inserted into the HTD plate, which was assembled and prepared for sample addition by the dispensing of blank buffer (DPBS, 100 µL/well) into the ‘top half’ of each membrane-split well. Each compound was diluted into plasma from each species (5 µM final concentration), which was aliquoted in triplicate to the ‘bottom half’ of the prepared HTD plate wells. The HTD plate was sealed and incubated for 6 hours at 37 °C. Following incubation, each well (both top and bottom halves) were transferred (20 µL) to the corresponding wells of a 96-shallow-well (V-bottom) plate. The daughter plates were then matrix-matched (buffer side wells received equal volume of plasma, and plasma side wells received equal volume of buffer), and extraction solution (120 µL; acetonitrile containing 50 nM carbamazepine as IS) was added to all wells of both daughter plates to precipitate protein and extract test article. The plates were then sealed and centrifuged (3500 rcf) for 10 minutes at ambient temperature. Supernatant (60 µL) from each well of the daughter plates was then transferred to the corresponding wells of new daughter plates (96-shallow-well, V bottom) containing water (Milli-Q, 60 µL/well), and the plates were sealed in preparation for LC-MS/MS analysis (see below). fu was calculated as (analyte to IS MS peak area ratio from Trans-buffer side) / (analyte to IS MS peak area ratio from Cis-plasma side). Mean values for each species were calculated from 3 replicates.

[4] = Binding in plasma from human (equilibrium dialysis); format: in vitro ADME; details: human, plasma, read-out: human fu,plasma
Method: as §14, §15

[5] = Binding in brain homogenate from rat (equilibrium dialysis); format: in vitro ADME
Method: Binding in brain homogenate from rat.
Determination of fraction unbound (f u) in brain homogenate from rat was conducted using the same methodology and procedure than described for plasma protein binding assay with the following modifications: 1) a final compound concentration of 1 μM was used, 2) naïve rat brains were homogenized in DPBS (1:3 composition of brain: DPBS, w/w) using a Mini-Bead Beater™ machine in order to obtain […]
The diluted fraction unbound (f u2) in brain was calculated as (analyte to IS MS peak area ratio from Trans-buffer side) / (analyte to IS MS peak area ratio from Cis-brain homogenate side). Undiluted fraction unbound for the brain was calculated using the following equation: […]
Mean values for each species were calculated from 3 replicates. […]

[6] = Rat plasma-to-brain level (PBL) cassette, brain distribution; format: in vivo; details: SD rat, 0.2 mg/kg IV, 0.2 mg/kg
[7] = calcium mobilization, hM4/Gqi5-CHO cells, EC20 acetylcholine, read-out: hM4 EC50
[8] = calcium mobilization, hM4/Gqi5-CHO cells, EC20 acetylcholine, read-out: hM4 pEC50 (converted)
[9] = calcium mobilization, hM4/Gqi5-CHO cells, EC20 acetylcholine
[10] = fraction unbound, equilibrium dialysis

SMILES	EC50 (human M4 (hM4); [7]) [µM]	Emax (human M4 (hM4); [9]) [%]	hM4 pEC50 (human M4 (hM4); [9])	other results
Cc1nc(C)c2c(n1)sc1c(N3CCCCC3)ncnc12 [14a]	> 30	–	–	EC50 (human M4 (hM4); [8]): > 31.6 µM
Cc1nc(C)c2c(n1)sc1c(N3CCOCC3)ncnc12 [14b]	5.6	39	–	EC50 (human M4 (hM4); [8]): 5.5 µM
Cc1nc(C)c2c(n1)sc1c(N3CC4(COC4)C3)ncnc12 [14c]	1.6	76	5.80	fold loss in hM4 potency vs comparator (human M4 (hM4)): 11 fold
Cc1nc(C)c2c(n1)sc1c(N3CCC3)ncnc12 [14d]	1.4	60	5.84	–
Cc1nc(C)c2c(n1)sc1c(N3CCC(F)(F)C3)ncnc12 [14e]	0.64	77	6.20	fold loss in hM4 potency vs comparator (human M4 (hM4)): 2.2 fold
Cc1nc(C)c2c(n1)sc1c(NC3CCCC3)ncnc12 [14f]	0.56	56	6.25	–
Cc1nc(C)c2c(n1)sc1c(N3CCCC3)ncnc12 [14g]	0.29	52	6.54	–
Cc1nc(C)c2c(n1)sc1c(N3CC4CC4C3)ncnc12 (centres unmarked) [14i]	0.16	76	6.81	CLint scaled at 1 µM [1]: 1050 mL/min/kg; CLint scaled at 1 µM [2]: 177 mL/min/kg; fraction unbound at 6 h, 5 µM [3, 10]: 0.048; fraction unbound at 6 h, 5 µM ([3]; in %): > 0.05; fraction unbound at 6 h, 5 µM [4, 10]: 0.013; fraction unbound at 6 h, 5 µM ([4]; in %): 0.01 to 0.05; rat fbrain ([5]; fraction unbound, equilibrium dialysis, rat brain homogenates): 0.012; fraction unbound at 6 h, 1 µM ([5]; rat, brain homogenate, in %, read-out: fu,brain (rat brain homogenate)): 0.01 to 0.05; Kp, brain:plasma ([6]; 0.25 h, total brain to total plasma ratio): 7.27; Kp,uu, brain:plasma ([6]; 0.25 h, unbound brain to unbound plasma ratio): 1.82; Kp at 0.25 h ([6]; male, Sprague-Dawley, rat, brain / plasma, iv, total brain to total plasma ratio): > 5; Kp uu at 0.25 h ([6]; male, Sprague-Dawley, rat, brain / plasma, iv, unbound brain to unbound plasma ratio): > 1
Cc1nc(C)c2c(n1)sc1c(NCc3ccc(C(C)(C)O)cc3)ncnc12 [14j]	1.3	70	5.90	EC50 (human M4 (hM4); in μM, read-out: hM4 EC50): > 1 µM
COc1ccc(CNc2ncnc3c2sc2nc(C)nc(C)c23)cc1F [14k]	1.2	65	5.94	EC50 (human M4 (hM4); in μM, read-out: hM4 EC50): > 1 µM
CCN(CC)c1nccc2c1sc1nc(C)nc(C)c12 [22a]	–	38	–	–
Cc1nc(C)c2c(n1)sc1c(N3CCN(C)CC3)nccc12 [22b]	> 10	52	–	–
Cc1nc(C)c2c(n1)sc1c(NC3CCC3)nccc12 [22c]	–	95	6.52	–
